{"source": "patent US20250009737A1", "about": "“COMPOUNDS AND METHODS FOR THE TARGETED DEGRADATION OF ANDROGEN RECEPTOR” (Arvinas Operations, Inc., priority 2023, published 2025)", "target": "T1, OCT2 (Homo sapiens, UniProt O15244)", "T1 construct": "expressed in transfected cells; host or cells: MDCKII or HEK293", "T1 sequence (O15244 whole entry)": "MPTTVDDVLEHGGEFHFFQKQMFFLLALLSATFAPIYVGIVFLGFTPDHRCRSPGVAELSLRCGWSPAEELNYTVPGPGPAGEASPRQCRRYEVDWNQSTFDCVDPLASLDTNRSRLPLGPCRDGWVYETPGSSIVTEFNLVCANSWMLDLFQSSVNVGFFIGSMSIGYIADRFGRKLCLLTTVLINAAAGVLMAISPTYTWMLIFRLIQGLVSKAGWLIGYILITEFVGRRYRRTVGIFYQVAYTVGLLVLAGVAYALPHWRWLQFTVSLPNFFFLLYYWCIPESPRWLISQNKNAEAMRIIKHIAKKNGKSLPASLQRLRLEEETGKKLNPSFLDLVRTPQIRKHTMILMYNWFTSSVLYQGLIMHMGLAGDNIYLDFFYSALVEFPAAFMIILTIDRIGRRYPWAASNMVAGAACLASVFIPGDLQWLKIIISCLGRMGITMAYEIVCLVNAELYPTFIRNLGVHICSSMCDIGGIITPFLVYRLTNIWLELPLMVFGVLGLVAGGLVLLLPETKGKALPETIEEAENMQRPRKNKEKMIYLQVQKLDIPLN", "test": "OCT2 uptake transporter inhibition in MDCKII or HEK293 cells", "format": "in vitro ADME", "conditions": "substrate Metformin (10 μM)", "method": "In addition, the inhibition potential against efflux transporters (P-glycoprotein (Pgp) and breast cancer resistance protein (BCRP)) and uptake transporters (MATE1, MATE2-K, OATP1B1, OATP1B3, OAT1, OAT3, and OCT2) was assessed using single transporter over-expressed cell monolayers (MDCK II or HEK293) or inside-out vesicles.\nThe potential of Compound A to inhibit Pgp or BCRP was tested for bidirectional transport of the probe substrates in Pgp or BCRP-expressed MDCKII and control monolayers at Compound A concentrations of 0.07-5 μM. Pgp and BCR inhibition were tested in inside-out membrane vesicles prepared from HEK293 overexpressing human Pgp and BCR at concentrations of 0.01-9 μM Compound A in the presence of 4 mM MgATP or MgAMP.", "data": [{"smiles": "COc1cc(O[C@H]2C(C)(C)[C@H](NC(=O)c3ccc(N4CCC(CN5CCN(c6ccc(C(=O)N[C@H]7CCC(=O)NC7=O)c(F)c6)CC5)CC4)cc3)C2(C)C)ccc1C#N", "note": "[Compound A, 4-(4-((1-(4-(((1R,3R)-3-(4-cyano-3-methoxyphenoxy)-2,2,4,4-tetramethylcyclobutyl)carbamoyl)phenyl)piperidin-4-yl)methyl)piperazin-1-yl)-N—((S)-2,6-dioxopiperidin-3-yl)-2-fluorobenzamide]", "values": [{"measurement": "IC50", "value": "> 3.75", "unit": "µM"}]}]}
